Where two headings read alike, the source gives them in different places. Numbered stars: 1 amine (or outer) side, 2 acyl side, 3 side chain; on linkers, the order of the positions; unused ones are H or OH. Bridge positions count the residues as written; N and C are the ends. Square brackets hold non-standard residues; d marks the D form. Ends that are not written are not given here. Peptide text beside a SMILES is read from it. I, II: the chains in the order shown. Actinocin(9to1) = Cc1c2oc3c(C)ccc(C(=O)[*:1])c3nc-2c(C(=O)[*:2])c(N)c1=O; NMeV = CN[C@H](C(=O)O)C(C)C; Sar = CNCC(=O)O

For assay [1], the system named is small ducts from rat pancreas. As to conditions: cited from earlier work.
In a further assay the test system is Fetal rat islets. As to the kind of experiment: Insulin content of cultured fetal rat islets. Format: cell-based. As to conditions: 200μ/ml PYY for 5 days, actinomycin D at 0.1, 0.2, 0.5 and 1.0 μg/ml for the last 16 hours. From the text: (§1) Fetal rat islets were obtained as follows. […] Fetuses were removed from the uterus.
For another assay, the system named is e21 islets. As to the kind of experiment: IBMX stimulated calcium influx in e21 islets. Format: cell-based, rat. Particulars: 1 μM IBMX in 3 mM (low) glucose; non-glucose responsive e21 islets. On the procedure:
as §1
E21 islet were isolated and cultured according to Example 1. Islets were then treated with 17 mM glucose or 1 μM IBMX in 3 mM (low) glucose (FIG. 2).

The test system of another assay is E21 fetal islets. Description: Glucose-stimulated insulin release (static insulin release, RIA) in cultured e21 fetal rat islets. As to conditions: e21 fetal islets cultured for 5 days with 200 ng/ml peptide.
[2] abbreviates: confluent duct monolayer, single treatment preferentially 48 hr.

As to `CCCC(=O)[O-].[Na+]` [Na-Butyrate], the induction of differentiation entry in assay [1] (setting [2]) is listed as “found to induce differentiation”.

`Cc1c2oc3c(C)ccc(C(=O)N[C@@H]4C(=O)N[C@H](C(C)C)C(=O)N5CCC[C@H]5C(=O)N(C)CC(=O)N(C)[C@@H](C(C)C)C(=O)O[C@@H]4C)c3nc-2c(C(=O)N[C@@H]2C(=O)N[C@H](C(C)C)C(=O)N3CCC[C@H]3C(=O)N(C)CC(=O)N(C)[C@@H](C(C)C)C(=O)O[C@@H]2C)c(N)c1=O` [Actinomycin D, actinomycin D] (I: T[dV]P[Sar][NMeV] / II: T[dV]P[Sar][NMeV]; ester I:1-I:C, II:1-II:C; linker I:N-II:N via Actinocin(9to1)): in the assay with Fetal rat islets, the “overall islet insulin content” value is “did not significantly decrease overall islet insulin content”.

Regarding cholera toxin, the induction of differentiation entry in assay [1] was “found to induce differentiation”.

In the case of `CC(C)Cn1c(=O)n(C)c(=O)c2[nH]cnc21` [IBMX], the intracellular calcium influx result in the assay on e21 islets is reported as “induced a calcium influx”.

Consider `CCCC(=O)Nc1ncnc2c1ncn2[C@@H]1O[C@@H]2COP(=O)(O)O[C@H]2[C@H]1OC(=O)CCC` [dibutyrl cAMP], for which, in assay [1] (setting [2]), the induction of differentiation result is reported as “found to induce differentiation”.

For the compound neuropeptide Y [NPY], in the assay with E21 fetal islets, the “gain of glucose responsivity (glucose-stimulated insulin release)” value was “did not stimulate gain of glucose responsivity”.

For “PPP: related peptide sharing approximately 70% amino acid homology with PYY; probably pancreatic polypeptide (PP) (APLEPVYPGDNATPEQMAQYAADLRRYINMLTRPRY; ends and bridges not checked; UniProt P01298 30-65, looked up)”, in the assay with E21 fetal islets, the “gain of glucose responsivity (glucose-stimulated insulin release)” value is “did not stimulate gain of glucose responsivity”.
